Source: PubChem BioAssay (NCI)
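Test compounds were applied to cells in 96-well plates for 48 hours at 5 doses. TGI: total growth inhibition.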

Tests used:
Assay in all cases: NCI tumour cell line growth inhibition, 48 h
SF-539 CNS = system: SF-539 CNS
MALME-3M melanoma = system: MALME-3M melanoma
IGROV1 ovarian = system: IGROV1 ovarian
MCF7 breast = system: MCF7 breast
NCI-H460 lung = system: NCI-H460 lung
SN12C renal = system: SN12C renal
UO-31 renal = system: UO-31 renal
SNB-19 CNS = system: SNB-19 CNS
HCT-116 colon = system: HCT-116 colon
SR leukemia = system: SR leukemia
HT29 colon = system: HT29 colon
MDA-MB-435 = system: MDA-MB-435
SW-620 colon = system: SW-620 colon
COLO 205 colon = system: COLO 205 colon
RXF 393 renal = system: RXF 393 renal
SK-OV-3 ovarian = system: SK-OV-3 ovarian
ACHN renal = system: ACHN renal
K-562 leukemia = system: K-562 leukemia
OVCAR-5 ovarian = system: OVCAR-5 ovarian
DU-145 prostate = system: DU-145 prostate
RPMI-8226 leukemia = system: RPMI-8226 leukemia
OVCAR-8 ovarian = system: OVCAR-8 ovarian
PC-3 prostate = system: PC-3 prostate
NCI/ADR-RES ovarian = system: NCI/ADR-RES ovarian
NCI-H226 lung = system: NCI-H226 lung
T-47D breast = system: T-47D breast
KM12 colon = system: KM12 colon
NCI-H522 lung = system: NCI-H522 lung
U251 CNS = system: U251 CNS
MDA-MB-231 breast = system: MDA-MB-231 breast
HL-60(TB) leukemia = system: HL-60(TB) leukemia
SF-268 CNS = system: SF-268 CNS
NCI-H23 lung = system: NCI-H23 lung
MOLT-4 leukemia = system: MOLT-4 leukemia
HS 578T breast = system: HS 578T breast
UACC-62 melanoma = system: UACC-62 melanoma
MDA-N = system: MDA-N
LOX IMVI melanoma = system: LOX IMVI melanoma
OVCAR-3 ovarian = system: OVCAR-3 ovarian
SK-MEL-28 melanoma = system: SK-MEL-28 melanoma
M14 melanoma = system: M14 melanoma
HCT-15 colon = system: HCT-15 colon
SNB-75 CNS = system: SNB-75 CNS
SF-295 CNS = system: SF-295 CNS
HOP-62 NSCLC = system: HOP-62 NSCLC
TK-10 renal = system: TK-10 renal
HCC-2998 colon = system: HCC-2998 colon
SK-MEL-2 melanoma = system: SK-MEL-2 melanoma
CAKI-1 renal = system: CAKI-1 renal
SK-MEL-5 melanoma = system: SK-MEL-5 melanoma
CCRF-CEM leukemia = system: CCRF-CEM leukemia
A498 renal = system: A498 renal
EKVX NSCLC = system: EKVX NSCLC
OVCAR-4 ovarian = system: OVCAR-4 ovarian
A549 NSCLC = system: A549 NSCLC

Measured: TGI

OCC(CO)CC1COc2ccccc2O1 (stereo not given)
> 10 µM: SF-539 CNS | MALME-3M melanoma | IGROV1 ovarian | MCF7 breast | NCI-H460 lung | SN12C renal | UO-31 renal | SNB-19 CNS | HCT-116 colon | SR leukemia | HT29 colon | MDA-MB-435 | SW-620 colon | COLO 205 colon | RXF 393 renal | SK-OV-3 ovarian | ACHN renal | K-562 leukemia | OVCAR-5 ovarian | DU-145 prostate | RPMI-8226 leukemia | OVCAR-8 ovarian | PC-3 prostate | NCI/ADR-RES ovarian | NCI-H226 lung | T-47D breast | KM12 colon | NCI-H522 lung | U251 CNS | MDA-MB-231 breast | HL-60(TB) leukemia | SF-268 CNS | NCI-H23 lung | MOLT-4 leukemia | HS 578T breast | UACC-62 melanoma | MDA-N | LOX IMVI melanoma | OVCAR-3 ovarian | SK-MEL-28 melanoma | M14 melanoma | HCT-15 colon | SNB-75 CNS | SF-295 CNS | HOP-62 NSCLC | TK-10 renal | HCC-2998 colon | SK-MEL-2 melanoma | CAKI-1 renal | SK-MEL-5 melanoma | CCRF-CEM leukemia | A498 renal | EKVX NSCLC | OVCAR-4 ovarian | A549 NSCLC
